The source made the active and inactive calls. The rule behind the calls is not given here.
Tests used:
[1] = test system: Rattus norvegicus; test: Reduction of blood glucose level in 18 hrs fasted normal Sprague-Dawley rat at 10 mg/kg, iv after 1 hr interval; type: functional; parameters: scale not given: the % may be the effect or the level left
[2] = biological target: Adenosine kinase (Homo sapiens, UniProt P55263); test: Inhibition of adenosine kinase AMP binding site
[3] = Inhibition of adenylate kinase AMP binding site
[4] = test system: Hepatocyte; test: Inhibition of glucose production in rat primary hepatocytes at 10 uM; type: functional, cell-based
[5] = test system: Hepatocyte; test: Inhibition of glucose production in rat primary hepatocytes at 100 uM; type: functional, cell-based
[6] = test system: Rattus norvegicus; test: Reduction of blood glucose level in 5 hrs fasted ZDF rat at 10 mg/kg, iv administered every 1 hr for 6 hrs; type: functional, organism-based; parameters: dose 10 mg/kg
[7] = Oral bioavailability in 18 hrs fasted normal Sprague-Dawley rat up to 100 mg/kg by urinary excretion assay; type: ADME, organism-based; details: urine
[8] = biological target: T1, ATP-dependent 6-phosphofructokinase, muscle type (Homo sapiens, UniProt P08237); test: Activation of phosphofructokinase AMP binding site
T1 sequence (P08237 whole entry): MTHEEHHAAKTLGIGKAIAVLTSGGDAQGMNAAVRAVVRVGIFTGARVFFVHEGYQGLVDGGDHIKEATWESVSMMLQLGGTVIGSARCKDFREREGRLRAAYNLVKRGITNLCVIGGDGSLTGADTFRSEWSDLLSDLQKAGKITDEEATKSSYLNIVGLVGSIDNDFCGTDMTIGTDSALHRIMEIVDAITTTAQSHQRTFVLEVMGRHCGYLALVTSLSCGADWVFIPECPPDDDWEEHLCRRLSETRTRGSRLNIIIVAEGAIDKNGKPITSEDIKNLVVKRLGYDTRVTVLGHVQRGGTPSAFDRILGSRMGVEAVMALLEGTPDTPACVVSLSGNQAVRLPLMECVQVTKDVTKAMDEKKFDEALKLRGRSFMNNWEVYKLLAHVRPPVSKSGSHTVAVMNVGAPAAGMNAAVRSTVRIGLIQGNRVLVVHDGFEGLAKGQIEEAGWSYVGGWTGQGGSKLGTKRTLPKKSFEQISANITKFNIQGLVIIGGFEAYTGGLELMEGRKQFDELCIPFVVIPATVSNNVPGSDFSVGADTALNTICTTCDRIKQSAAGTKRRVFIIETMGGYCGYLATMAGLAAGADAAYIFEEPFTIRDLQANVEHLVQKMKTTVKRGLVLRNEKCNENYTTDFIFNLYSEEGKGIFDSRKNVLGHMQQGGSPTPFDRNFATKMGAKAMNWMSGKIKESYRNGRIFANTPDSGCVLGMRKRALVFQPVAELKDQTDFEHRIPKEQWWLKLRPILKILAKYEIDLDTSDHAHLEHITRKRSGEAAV

[9] = Activation of glycogen phosphorylase AMP binding site

Sequence of Adenosine kinase (P55263 whole entry): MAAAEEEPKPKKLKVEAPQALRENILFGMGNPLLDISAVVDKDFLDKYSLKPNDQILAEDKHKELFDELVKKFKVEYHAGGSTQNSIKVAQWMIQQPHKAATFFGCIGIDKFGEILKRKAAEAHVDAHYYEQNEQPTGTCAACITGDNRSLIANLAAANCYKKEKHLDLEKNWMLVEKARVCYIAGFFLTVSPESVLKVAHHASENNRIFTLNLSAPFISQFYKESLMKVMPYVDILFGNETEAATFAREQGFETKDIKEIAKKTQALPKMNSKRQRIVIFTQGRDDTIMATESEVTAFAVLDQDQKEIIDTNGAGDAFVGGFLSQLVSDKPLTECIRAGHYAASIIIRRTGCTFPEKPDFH

- IC50 [2]: > 100 µM
- IC50 [3]: > 100 µM
- bioavailability [7]: 1%
- EC50 [8]: > 100 µM
- EC50 [9]: > 100 µM
SMILES: CCc1cc(F)c(N)c2nc(-c3ccc(P(=O)(O)O)o3)n(CC(C)C)c12
- Activity [1]: 64%
- Activity [4]: Active
- Activity [5]: Active
- Activity [6]: Active
